Consider 32 compounds from patent publication US8993565B2, “(6-oxo-1,6-dihydropyrimidin-2-yl)amide derivatives, preparation thereof and pharmaceutical use thereof as AKT(PKB) phosphorylation inhibitors” (Sanofi, priority 2009, dated 2015).

For the test, the system named is AKT protein phosphorylated on serine 473 (P-AKT-S473). As to the kind of experiment: Study of pAKT expression in PC3 human prostate carcinoma cells measured by the MSD Multi-spot Biomarker Detection technique (Test B). The following applies: PC-3, inhibition of AKT phosphorylation (P-AKT-S473), MSD sandwich immunoassay, 1 to 2 h incubation, absolute IC50, mean of 2 experiments. It counts as cell-based. How it is done:
The inhibitory activity of the molecules on AKT phosphorylation is measured either by western blotting using the technique described below, or by the MSD Multi-spot Biomarker detection technique from Meso Scale Discovery also described below.
Study of pAKT Expression in PC3 Human Prostate Carcinoma Cells Measured by the MSD Multi-Spot Biomarker Detection Technique from Meso Scale Discovery (Test B):
The primary antibody specific for P-AKT-S473 (Kit #K151CAD) is coated on to an electrode in each well of the 96-well plates of the MSD, kit: after the addition of a protein lysate to each well, the signal is visualised by adding a secondary detection antibody labelled with an electrochemoluminescent compound. The procedure followed is that described in the kit.
On day 2, the cells are incubated in the presence or absence of the test products for 1 to 2 h at 37° C. in the presence of 5% of CO2. The molecules, diluted in dimethyl sulphoxide (DMSO Sigma #D2650), are added from a 20-times concentrated stock solution, the final percentage of DMSO being 0.1%. The molecules are tested either at a single concentration of less than or equal to 10 μM, or at increasing concentrations in a range that can extend from less than 1 nM to 10 μM.
After this incubation, the cells are lysed for the preparation of the proteins. […] At this stage, the plates containing the lysates can be stored at −20° C. or at −80° C.
The wells of the 96-well plates of the MSD kit are saturated for 1 h at ambient temperature with the blocking solution of the MSD kit. Four washes are carried out with 150 μl of Tris Wash Buffer of the MSD kit. The lysates previously prepared are transferred into the 96-well multi-spot plates of the MSD kit and incubated for 1 h at ambient temperature, with shaking. Four washes are carried out with 150 μl of Tris Wash Buffer of the MSD kit. 25 μl of the MSD sulfo-tag detection antibody solution are added to the wells and incubated for 1 h at ambient temperature, with shaking. Four washes are carried out with 150 μl of Tris Wash Buffer of the MSD kit. 150 μl of Read Buffer of the MSD kit are added to the wells and the plates are read immediately on the S12400 instrument from Meso Scale Discovery.
The instrument measures a signal for each well. Wells without cells and containing the lysis buffer serve to determine the background noise that will be subtracted from all the measurements (min). The wells containing cells in the absence of product and in the presence of 0.1% DMSO are considered to be the 100% signal (max). The percentage inhibition is calculated for each concentration of test product according to the following formula: (1-((test-min)(max-min)))×100.
2 independent experiments make it possible to calculate the mean of the IC50 values.
In the case of `CN(C)c1cccc(NC(=O)Cc2nc(N3CCOCC3)cc(=O)[nH]2)c1` [Example 4, N-[3-(dimethylamino)phenyl]-2-[4-(morpholin-4-yl)-6-oxo-1,6-dihydropyrimidin-2-yl]acetamide], it took 0.145 µM to reach half-maximal inhibition (IC50).
As for `O=C(Cc1nc(N2CCOCC2)cc(=O)[nH]1)Nc1ccc(F)cc1F` [Example 5, N-(2,4-difluorophenyl)-2-[4-(morpholin-4-yl)-6-oxo-1,6-dihydropyrimidin-2-yl]acetamide], the figure is 0.051 µM; as for `O=C(Cc1nc(N2CCOCC2)cc(=O)[nH]1)Nc1ccsc1` [Example 7, 2-[4-(morpholin-4-yl)-6-oxo-1,6-dihydropyrimidin-2-yl]-N-(thiophen-3-yl)acetamide], 0.023 µM; as for `CC(C)(C)c1cccc(NC(=O)Cc2nc(N3CCOCC3)cc(=O)[nH]2)c1` [Example 19, N-[3-(2-methylpropan-2-yl)phenyl]-2-[4-(morpholin-4-yl)-6-oxo-1,6-dihydropyrimidin-2-yl]acetamide], 0.042 µM.
`N#Cc1cc(NC(=O)Cc2nc(N3CCOCC3)cc(=O)[nH]2)ccc1F` [Example 24, N-(3-cyano-4-fluorophenyl)-2-[4-(morpholin-4-yl)-6-oxo-1,6-dihydropyrimidin-2-yl]acetamide]: 0.247 µM corresponded to half-maximal inhibition (IC50). Compared with the last compound, the IC50 is about 5.9-fold higher.
As for `O=C(Cc1nc(N2CCOCC2)cc(=O)[nH]1)Nc1ccc(F)cn1` [Example 27, N-(5-fluoropyridin-2-yl)-2-[4-(morpholin-4-yl)-6-oxo-1,6-dihydropyrimidin-2-yl]acetamide], the IC50 is 0.071 µM.
In turn, `O=C(Cc1nc(N2CCOCC2)cc(=O)[nH]1)Nc1cccnc1` [Example 30, 2-[4-(morpholin-4-yl)-6-oxo-1,6-dihydropyrimidin-2-yl]-N-(pyridin-3-yl)acetamide] came in with an IC50 of 1.03 µM.
`Cc1cc(F)ccc1NC(=O)Cc1nc(N2CCOCC2)cc(=O)[nH]1` [Example 31, N-(4-fluoro-2-methylphenyl)-2-[4-(morpholin-4-yl)-6-oxo-1,6-dihydropyrimidin-2-yl]acetamide] came in with an IC50 of 0.058 µM. This IC50 is about 18-fold lower than that of the compound before.
The figure for `O=C(Cc1nc(N2CCOCC2)cc(=O)[nH]1)Nc1cccc(OC2CCCC2)c1` [Example 49, N-[3-(cyclopentyloxy)phenyl]-2-[4-(morpholin-4-yl)-6-oxo-1,6-dihydropyrimidin-2-yl]acetamide] is 0.146 µM.
On to `O=C(Cc1nc(N2CCOCC2)cc(=O)[nH]1)Nc1ccc(F)c(F)c1F` [Example 53, 2-[4-(morpholin-4-yl)-6-oxo-1,6-dihydropyrimidin-2-yl]-N-(2,3,4-trifluorophenyl)acetamide], for which the IC50 turned out to be 0.066 µM.
As for `O=C(Cc1nc(N2CCOCC2)cc(=O)[nH]1)Nc1cc(F)c(F)cc1F` [Example 60, 2-[4-(morpholin-4-yl)-6-oxo-1,6-dihydropyrimidin-2-yl]-N-(2,4,5-trifluorophenyl)acetamide], the IC50 turned out to be 0.29 µM.
The figure for `O=C(Cc1nc(N2CCOCC2)cc(=O)[nH]1)Nc1cc(Cl)c(F)c(Cl)c1` [Example 61, N-(3,5-dichloro-4-fluorophenyl)-2-[4-(morpholin-4-yl)-6-oxo-1,6-dihydropyrimidin-2-yl]acetamide] is 0.077 µM; for `O=C(Cc1nc(N2CCOCC2)cc(=O)[nH]1)Nc1ccc(F)c(C(=O)O)c1` [Example 64, 2-fluoro-5-(([4-(morpholin-4-yl)-6-oxo-1,6-dihydropyrimidin-2-yl]acetyl)amino)benzoic acid] it is 10 µM.
`O=C(Cc1nc(N2CCOCC2)cc(=O)[nH]1)Nc1ccc(F)cc1Br` [Example 66, N-(2-bromo-4-fluorophenyl)-2-[4-(morpholin-4-yl)-6-oxo-1,6-dihydropyrimidin-2-yl]acetamide] displayed an IC50 of 0.131 µM.
In turn, `O=C(Cc1nc(N2CCOCC2)cc(=O)[nH]1)Nc1ccc(F)c(I)c1` [Example 74, N-(4-fluoro-3-iodophenyl)-2-[4-(morpholin-4-yl)-6-oxo-1,6-dihydropyrimidin-2-yl]acetamide] had an IC50 of 0.01 µM.
As for `O=C(Cc1nc(N2CCOCC2)cc(=O)[nH]1)Nc1ccc(F)c(C(F)F)c1` [Example 76], the figure is 0.077 µM.
The figure for `O=C(Nc1ccc(F)cc1)C(F)(F)c1nc(N2CCOCC2)cc(=O)[nH]1` [Example 77, 2,2-difluoro-N-(4-fluorophenyl)-2-[4-(morpholin-4-yl)-6-oxo-1,6-dihydropyrimidin-2-yl]acetamide] is 0.698 µM.
In turn, `Cn1c(CC(=O)Nc2ccc(F)c(F)c2)nc(N2CCOCC2)cc1=O` [Example 78, N-(3,4-difluorophenyl)-2-[1-methyl-4-(morpholin-4-yl)-6-oxo-1,6-dihydropyrimidin-2-yl]acetamide] yielded an IC50 of 0.129 µM.
As for `Cn1c(CC(=O)N2CCc3ccccc32)nc(N2CCOCC2)cc1=O` [Example 79, 2-[2-(2,3-dihydro-1 H-indol-1-yl)-2-oxoethyl]-3-methyl-6-(morpholin-4-yl)pyrimidin-4(3 H)-one], the figure is 0.02 µM.
`Cn1c(CC(=O)Nc2ccc(F)c(Br)c2)nc(N2CCOCC2)cc1=O` [Example 80, N-(3-bromo-4-fluorophenyl)-2-[1-methyl-4-(morpholin-4-yl)-6-oxo-1,6-dihydropyrimidin-2-yl]acetamide] gave an IC50 of 0.094 µM.
`Cn1c(CC(=O)Nc2ccc(F)c(CO)c2)nc(N2CCOCC2)cc1=O` [Example 81, N-[4-fluoro-3-(hydroxymethyl)phenyl]-2-[1-methyl-4-(morpholin-4-yl)-6-oxo-1,6-dihydropyrimidin-2-yl]acetamide] showed an IC50 of 1.94 µM.
For `COc1cc(NC(=O)Cc2nc(N3CCOCC3)cc(=O)n2C)ccc1F` [Example 83, N-(4-fluoro-3-methoxyphenyl)-2-[1-methyl-4-(morpholin-4-yl)-6-oxo-1,6-dihydropyrimidin-2-yl]acetamide], the midpoint of inhibition, the IC50, lay at 0.115 µM. This IC50 is about 17-fold lower than that of the compound before.
`O=C(Cc1nc(N2CCOCC2)cc(=O)[nH]1)Nc1cccc2occc12` [Example 84, N-(1-benzofur-4-yl)-2-[4-(morpholin-4-yl)-6-oxo-1,6-dihydropyrimidin-2-yl]acetamide] came in with an IC50 of 0.017 µM. Against the preceding compound, the IC50 is about 6.8-fold lower.
Regarding `Cn1c(CC(=O)Nc2ccccc2)nc(N2CCOCC2)cc1=O` [Example 85, 2-[1-methyl-4-(morpholin-4-yl)-6-oxo-1,6-dihydropyrimidin-2-yl]-N-phenylacetamide], half-maximal inhibition (IC50) required 0.34 µM.
`O=C(Cc1nc(N2CCOCC2)cc(=O)[nH]1)Nc1cccc(F)c1O` [Example 87, N-(3-fluoro-2-hydroxyphenyl)-2-[4-(morpholin-4-yl)-6-oxo-1,6-dihydropyrimidin-2-yl]acetamide] showed an IC50 of 0.075 µM.
Consider `O=C(Cc1nc(N2CCOCC2)cc(=O)[nH]1)N1CCc2c(Cl)cccc21` [Example 89, 2-[2-(4-chloro-2,3-dihydro-1 H-indol-1-yl)-2-oxoethyl]-6-(morpholin-4-yl)pyrimidin-4(3 H)-one], for which the IC50 turned out to be 0.003 µM.
The figure for `C#Cc1cc(NC(=O)Cc2nc(N3CCOCC3)cc(=O)[nH]2)ccc1F` [Example 90, N-(3-ethynyl-4-fluorophenyl)-2-[4-(morpholin-4-yl)-6-oxo-1,6-dihydropyrimidin-2-yl]acetamide] is 0.014 µM.
For `O=C(Cc1nc(N2CCOCC2)cc(=O)[nH]1)N1CCc2c(O)cccc21` [Example 91, 2-[2-(4-hydroxy-2,3-dihydro-1H-indol-1-yl)-2-oxoethyl]-6-(morpholin-4-yl)pyrimidin-4(3H)-one], the midpoint of inhibition, the IC50, lay at 0.071 µM.
As for `O=C(Cc1nc(N2CCOCC2)cc(=O)[nH]1)N1CCc2c(F)cc(F)cc21` [Example 92, 2-[2-(4,6-difluoro-2,3-dihydro-1H-indol-1-yl)-2-oxoethyl]-6-(morpholin-4-yl)pyrimidin-4(3H)-one], the figure is 0.057 µM; as for `Cn1c(CC(=O)Nc2ccc(F)c(I)c2)nc(N2CCOCC2)cc1=O` [Example 93, N-(3-iodo-4-fluorophenyl)-2-[1-methyl-4-(morpholin-4-yl)-6-oxo-1,6-dihydropyrimidin-2-yl]acetamide], 0.063 µM.
In turn, `O=C(Cc1nc(N2CCOCC2)cc(=O)[nH]1)N1CCc2c1ccc(F)c2F` [Example 94, 2-[2-(4,5-difluoro-2,3-dihydro-1H-indol-1-yl)-2-oxoethyl]-6-(morpholin-4-yl)pyrimidin-4(3H)-one] showed an IC50 of 0.011 µM.
As for `O=C(Cc1nc(N2CCOCC2)cc(=O)[nH]1)N1CCc2ccc(F)cc21` [Example 95, 2-[2-(6-fluoro-2,3-dihydro-′1H-indol-1-yl)-2-oxoethyl]-6-(morpholin-4-yl)pyrimidin-4(3H)-one], the figure is 0.035 µM.
